From patent US4769377A, “Adenosine receptor antagonists” (priority 1986, dated 1988)

What follows are compounds tested against T1, adenosine A1 receptors (Bos taurus, UniProt P28190) (assay: inhibition of [^3 H]CHA binding to A1 adenosine receptors in bovine brain membranes). Details: not given.
T1 sequence (P28190 1-326): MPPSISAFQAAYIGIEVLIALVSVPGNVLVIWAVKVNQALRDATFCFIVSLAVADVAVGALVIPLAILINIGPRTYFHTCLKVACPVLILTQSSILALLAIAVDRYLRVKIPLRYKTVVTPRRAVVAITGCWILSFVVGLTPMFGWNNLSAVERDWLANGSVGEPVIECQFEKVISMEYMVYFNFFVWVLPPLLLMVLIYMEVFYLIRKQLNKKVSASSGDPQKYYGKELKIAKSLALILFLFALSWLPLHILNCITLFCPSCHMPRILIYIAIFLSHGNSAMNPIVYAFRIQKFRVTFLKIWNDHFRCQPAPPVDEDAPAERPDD
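Further: Filter-bound radioactivity read by liquid scintillation counting, with dose-inhibition curves built from 4–8 test concentrations, each run in triplicate.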

| Compound | Ki | IC50 |
| --- | --- | --- |
| Cn1c(=O)c2[nH]c(Cc3ccccc3)nc2n(C)c1=O [8-benzylT] |  | 1500 nM |
| Cn1c(=O)c2[nH]c(-c3ccccc3F)nc2n(C)c1=O [8-(o-fluorophenyl)T] |  | 12 nM |
| C=CCn1c(=O)c2nc[nH]c2n(CC=C)c1=O [1,3-diallylX] |  | 4000 nM |
| Cn1c(=O)c2[nH]c(-c3ccc(N)cc3)nc2n(C)c1=O [B211, 8-(p-aminophenyl)theophylline] | 0.69 nM | 1.7 nM |
| Cn1c(=O)c2[nH]c(-c3cccc(C(=O)O)c3)nc2n(C)c1=O [8-(m-carboxyphenyl)T] | 540 nM |  |
| CCCc1nc2c([nH]1)c(=O)n(C)c(=O)n2C [8-(n-propyl)T] |  | 100 nM |
| Cn1c(=O)c2c(ncn2CCCl)n(C)c1=O [7-(2-chloroethyl)T] |  | 5000 nM |
| Cn1c(=O)c2[nH]c(-c3ccccc3O)nc2n(C)c1=O [8-(o-hydroxyphenyl)T] | 4.8 nM |  |
| Cn1c(=O)c2[nH]c(-c3cccc([N+](=O)[O-])c3)nc2n(C)c1=O [8-(m-nitrophenyl)T] | 22 nM |  |
| Cn1c(=O)c2[nH]c(-c3ccc([N+](=O)[O-])cc3)nc2n(C)c1=O [8-(p-nitrophenyl)T] | 4 nM |  |
| Cn1c(=O)c2[nH]c(-c3ccccc3[N+](=O)[O-])nc2n(C)c1=O [8-(o-nitrophenyl)T] | 49 nM |  |
| Cn1c(=O)c2[nH]c(-c3ccc(C(=O)O)cc3)nc2n(C)c1=O [8-(p-carboxyphenyl)T] | 18 nM |  |
| Cc1ccc(-c2nc3c([nH]2)c(=O)n(C)c(=O)n3C)s1 [8-(5-methyl-2-thienyl)T] |  | 5 nM |
| CCn1c(=O)c2nc[nH]c2n(CC)c1=O [1,3-diethylX] | 1400 nM | 3000 nM |
| Cn1c(=O)[nH]c(=O)c2[nH]cnc21 [3-methylX] |  | 150000 nM |
| Cn1c(=O)c2[nH]c(C3CCCC3)nc2n(C)c1=O [8-cyclopentylT] |  | 2 nM |
| Cn1c(=O)c2nc(-c3ccccc3N)[nH]c2n(C)c1=O [B87, 8-(o-aminophenyl)theophylline] | 2.3 nM | 5 nM |
| Cn1c(=O)c2[nH]c(-c3ccc4ccccc4c3)nc2n(C)c1=O [8-(2-naphthyl)T] |  | 5 nM |

More lines, now with the values ahead:

| Ki | IC50 | Compound |
| --- | --- | --- |
| 5.8 nM |  | Cn1c(=O)c2[nH]c(-c3cccc(N)c3)nc2n(C)c1=O [8-(m-aminophenyl)T] |
| 7400 nM | 30000 nM | Cn1c(=O)[nH]c2ncn(C)c2c1=O [1,7-dimethylX] |
| 4 nM |  | Cn1c(=O)c2[nH]c(-c3cccc(Br)c3)nc2n(C)c1=O [8-(m-bromophenyl)T] |
|  | 20 nM | COc1ccc(-c2nc3c([nH]2)c(=O)n(C)c(=O)n3C)cc1OC [8-(3,4-dimethoxyphenyl)T] |
|  | 1500 nM | O=c1nc2[nH]c3ccccc3nc-2c(=O)[nH]1 [alloxazine] |
|  | 500 nM | Cn1c(=O)c2[nH]c(-c3ccc(S(=O)(=O)O)cc3)nc2n(C)c1=O [8-(p-sulfo-phenyl)T] |
|  | 20 nM | Cn1cccc1-c1nc2c([nH]1)c(=O)n(C)c(=O)n2C [8-(N--methyl-2-pyrrolyl)T] |
| 99000 nM | 200000 nM | O=c1[nH]c(=O)c2[nH]cnc2[nH]1 [xanthine] |
| 21000 nM |  | Cn1c(=O)c2[nH]c(-c3ccccc3C(=O)O)nc2n(C)c1=O [8-(o-carboxyphenyl)T] |
|  | 800000 nM | Cn1c(=O)c2c(ncn2CC(O)CO)n(C)c1=O (stereo not drawn) [7-(2,3-dihydroxypropyl)T] |
|  | 100000 nM | Cn1c(=O)c2c(ncn2CCO)n(C)c1=O [7-(2-hydroxyethyl)T] |
|  | 25000 nM | Cn1c(=O)c2nc3ccccc3nc2n(C)c1=O [1,3-dimethylalloxazine] |
|  | 18 nM | Cn1c(=O)c2[nH]c(-c3ccco3)nc2n(C)c1=O [8-(2-furyl)T] |
|  | 6 nM | Cc1ccccc1-c1nc2c([nH]1)c(=O)n(C)c(=O)n2C [8-(o-methylphenyl)T] |

Same assay, conditions: Table II; vs [^3 H-CHA] in bovine brain

| Compound | IC50 |
| --- | --- |
| CN(C)c1cccc(-c2nc3c([nH]2)c(=O)n(C)c(=O)n3C)c1 [8-(m-dimethylaminophenyl)T] | 80 nM |
| CCn1c(=O)c2[nH]c(-c3ccc(Br)cc3)nc2n(CC)c1=O [1,3-diethyl-8-(p-bromophenyl)X] | 1 nM |
| CCOc1ccc(-c2nc3c([nH]2)c(=O)n(C)c(=O)n3C)cc1 [8-(p-ethoxyphenyl)T] | 2 nM |
| COc1ccc(-c2nc3c([nH]2)c(=O)n(C)c(=O)n3C)c(OC)c1 [8-(2,4-dimethoxyphenyl)T] | 200 nM |
| Cn1c(=O)c2[nH]c(-c3cccc(C(=O)O)c3)nc2n(C)c1=O [8-(m-carboxyphenyl)T] | 1000 nM |
| CCCCOc1ccc(-c2nc3c([nH]2)c(=O)n(C)c(=O)n3C)cc1 [8-(p-butoxyphenyl)T] | 4 nM |
| CSc1ccc(-c2nc3c([nH]2)c(=O)n(C)c(=O)n3C)cc1 [8-(p-methylthiophenyl)T] | 2 nM |
| Cn1c(=O)c2[nH]c(-c3ccncc3)nc2n(C)c1=O [8-(4-pyridyl)T] | 35 nM |
| Cn1c(=O)c2[nH]c(-c3ccccc3O)nc2n(C)c1=O [8-(o-hydroxyphenyl)T] | 10 nM |
| Cn1c(=O)c2[nH]c(-c3cccc([N+](=O)[O-])c3)nc2n(C)c1=O [8-(m-nitrophenyl)T] | 50 nM |
| Cn1c(=O)c2[nH]c(-c3ccc([N+](=O)[O-])cc3)nc2n(C)c1=O [8-(p-nitrophenyl)T] | 8 nM |
| C=CCn1c(=O)c2[nH]c(-c3ccccc3)nc2n(C)c1=O [1-allyl-3-methyl-8-phenylX] | 4 nM |
| Cn1c(=O)c2[nH]c(-c3ccccc3[N+](=O)[O-])nc2n(C)c1=O [8-(o-nitrophenyl)T] | 80 nM |
| Cn1c(=O)c2[nH]c(-c3ccc(C(=O)O)cc3)nc2n(C)c1=O [8-(p-carboxyphenyl)T] | 50 nM |
| Cn1c(=O)c2[nH]c(-c3ccoc3)nc2n(C)c1=O [8-(3-furyl)T] | 4 nM |
| CCc1ccc(-c2nc3c([nH]2)c(=O)n(C)c(=O)n3C)cc1 [8-(p-ethylphenyl)T] | 0.8 nM |
| Cn1c(=O)c2[nH]c(-c3ccc(I)cc3)nc2n(C)c1=O [8-(p-iodophenyl)T] | 1.3 nM |
| Cn1c(=O)c2[nH]c(-c3ccc(F)cc3)nc2n(C)c1=O [8-(p-fluorophenyl)T] | 3.5 nM |
| COc1ccccc1-c1nc2c([nH]1)c(=O)n(C)c(=O)n2C [8-(o-methoxyphenyl)T] | 350 nM |
| CN(C)c1ccc(-c2nc3c([nH]2)c(=O)n(C)c(=O)n3C)cc1 [8-(p-dimethylaminophenyl)T] | 1.8 nM |
| C=CCn1c(=O)c2[nH]c(-c3ccc(C)cc3N)nc2n(C)c1=O [1-allyl-3-methyl-8-(2-amino-4-methylphenyl)X] | 7 nM |
| C=CCn1c(=O)c2[nH]c(-c3ccc(Cl)cc3N)nc2n(CC=C)c1=O [1,3-diallyl-8-(2-amino-4-chlorophenyl)X, 1,3-diallyl-8-(2-amino-4-chlorophenyl)xanthine] | 0.8 nM |

Next, values leading:

| IC50 | Compound |
| --- | --- |
| 10 nM | Cn1c(=O)c2[nH]c(-c3cccc(N)c3)nc2n(C)c1=O [8-(m-aminophenyl)T] |
| 500 nM | COc1cc(OC)cc(-c2nc3c([nH]2)c(=O)n(C)c(=O)n3C)c1 [8-(3,5-dimethoxyphenyl)T] |
| 10 nM | Cn1c(=O)c2[nH]c(-c3cccc(Br)c3)nc2n(C)c1=O [8-(m-bromophenyl)T] |
| 2.5 nM | Cn1c(=O)[nH]c2nc(-c3ccccc3)[nH]c2c1=O [1-methyl-8-phenylX] |
| 4 nM | Cn1c(=O)c2[nH]c(-c3cccc(F)c3)nc2n(C)c1=O [8-(m-fluorophenyl)T] |
| 10 nM | Cc1ccc(-c2nc3c([nH]2)c(=O)n(C)c(=O)n3C)c(N)c1 [8-(2-amino-4-methylphenyl)T] |
| 1.5 nM | COc1ccc(-c2nc3c([nH]2)c(=O)n(C)c(=O)n3C)cc1 [8-(p-methoxyphenyl)T] |
| 20 nM | COc1cccc(-c2nc3c([nH]2)c(=O)n(C)c(=O)n3C)c1 [8-(m-methoxyphenyl)T] |
| 2500 nM | Cn1c(=O)c2[nH]c(-c3ccccc3C(=O)O)nc2n(C)c1=O [8-(o-carboxyphenyl)T] |
| 30 nM | Cc1cc(O)cc(C)c1-c1nc2c([nH]1)c(=O)n(C)c(=O)n2C [8-(2,6-dimethyl-4-hydroxyphenyl)T] |
| 80 nM | Cn1c(=O)c2[nH]c(-c3cccc4ccccc34)nc2n(C)c1=O [8-(1-naphthyl)T] |
| 0.8 nM | Cc1ccc(-c2nc3c([nH]2)c(=O)n(C)c(=O)n3C)cc1 [8-(p-methylphenyl)T] |

Same assay, conditions: bovine brain

| Compound | adenosine receptor blocking activity (in words) |
| --- | --- |
| C=CCn1c(=O)c2[nH]c(-c3ccc(Cl)cc3N)nc2n(CC=C)c1=O [1,3-diallyl-8-(2-amino-4-chlorophenyl)X, 1,3-diallyl-8-(2-amino-4-chlorophenyl)xanthine] | useful activity as an adenosine receptor antagonist |
